Laboratory results: patent publication US20160237059A1, “HETEROCYCLIC SUBSTITUTED TRIFLUOROMETHYL PYRIMIDINONES AND THEIR USE” (BAYER PHARMA AKTIENGESELLSCHAFT, priority 2013, published 2016)

Legend:
Assay type in all cases: cell-based
murine CCR2 [1] = target: T1, murine CCR2 (Mus musculus, UniProt P51683); assay: Functional β-arrestin recruiting test with human MCP-1 (B-2a); conditions: U2OS β-arrestin cell line transfected with murine CCR2; agonist human MCP-1 at EC50 (about 3 nM); in some cases means of several determinations
T1 construct: host or cells: U2OS β-arrestin cell line
Procedure, shortened: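 Antagonist mode in U2OS cells expressing murine CCR2, read by PathHunter β-galactosidase complementation luminescence. Cells pre-incubated 10 min with 10-point compound dilutions (1:3.16 steps), then stimulated with human MCP-1 at its EC50 (usually about 3 nM) for 90 min at 37° C.; IC50 from 4-parameter logistic fit.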

human CCR2 = target: T2, human CCR2 (Homo sapiens, UniProt P41597); assay: Functional Ca2+ release test (B-1); conditions: Chem-1 cell line transfected with human CCR2; 50% inhibition of the MCP-1 effect, MCP-1 at EC50 (about 5 nM); in some cases means of several determinations
T2 construct: host or cells: Chem-1 cell line
T2 sequence (P41597 1-360 isoform P41597-2): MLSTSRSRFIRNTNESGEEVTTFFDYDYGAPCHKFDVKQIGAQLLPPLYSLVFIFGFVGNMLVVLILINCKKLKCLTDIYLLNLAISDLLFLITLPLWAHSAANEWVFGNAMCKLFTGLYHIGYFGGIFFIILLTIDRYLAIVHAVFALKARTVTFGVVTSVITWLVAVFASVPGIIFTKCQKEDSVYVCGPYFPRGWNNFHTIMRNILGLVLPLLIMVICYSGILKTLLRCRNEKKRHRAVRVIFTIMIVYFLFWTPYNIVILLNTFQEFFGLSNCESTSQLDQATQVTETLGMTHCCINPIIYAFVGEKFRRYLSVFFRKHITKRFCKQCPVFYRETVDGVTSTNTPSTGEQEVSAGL
Procedure, shortened: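 Inhibition of MCP-1-evoked Ca2+ release was measured over 120 s by fluorescence imaging in Fluo-4-loaded, human CCR2-transfected Chem-1 cells. Compounds, tested in 10-point 1:3.16 series, were added 10 min before agonist at its EC50 (typically about 5 nM). IC50 values were obtained by 4-parameter logistic fitting.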

murine CCR2 [2] = target: T1, murine CCR2; assay: Functional β-arrestin recruiting test with murine MCP-1 (B-2b); conditions: U2OS β-arrestin cell line transfected with murine CCR2; agonist murine MCP-1; in some cases means of several determinations
Procedure, shortened: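 In a PathHunter β-galactosidase complementation assay, U2OS cells expressing murine CCR2 were preincubated 10 min with compound (10-point, 1:3.16 dilutions), then challenged with murine MCP-1 at its predetermined EC50 for 90 min at 37 °C. Luminescence was read after 60 min, and IC50 was fitted with a 4-parameter Hill function.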

T1 sequence (P51683 whole entry): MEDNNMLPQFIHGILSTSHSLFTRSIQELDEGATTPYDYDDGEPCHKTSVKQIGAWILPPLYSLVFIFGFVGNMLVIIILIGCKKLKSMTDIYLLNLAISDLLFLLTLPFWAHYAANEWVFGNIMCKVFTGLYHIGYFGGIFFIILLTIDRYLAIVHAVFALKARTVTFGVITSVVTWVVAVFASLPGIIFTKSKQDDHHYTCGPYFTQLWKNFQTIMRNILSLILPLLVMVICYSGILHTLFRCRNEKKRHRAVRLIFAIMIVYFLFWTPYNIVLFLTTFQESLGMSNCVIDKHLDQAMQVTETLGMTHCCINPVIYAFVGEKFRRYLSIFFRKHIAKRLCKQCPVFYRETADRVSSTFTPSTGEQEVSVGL

IC50 (murine CCR2 [1])	IC50 (human CCR2)	IC50 (murine CCR2 [2])	Compound
1.8 nM	0.3 nM	4.8 nM	O=c1[nH]c(-c2cc[nH]n2)nc(C(F)(F)F)c1Oc1ccc(Cl)c(C(F)(F)F)c1 [Example 65, 5-[4-chloro-3-(trifluoromethyl)phenoxy]-2-(1H-pyrazol-3-yl)-6-(trifluoromethyl)pyrimidin-4(3H)-one]
2.5 nM	0.6 nM	12 nM	O=c1[nH]c(-c2cc[nH]n2)nc(C(F)(F)F)c1Oc1ccc(Cl)c(Cl)c1 [Example 49, 5-(3,4-Dichlorophenoxy)-2-(1H-pyrazol-3-yl)-6-(trifluoromethyl)pyrimidin-4(3H)-one]
67 nM	1.8 nM	440 nM	O=c1[nH]c(-n2cccn2)nc(C(F)(F)F)c1Cc1ccc(Cl)c(Cl)c1 [Example 53, 5-(3,4-dichlorobenzyl)-2-(1H-pyrazol-1-yl)-6-(trifluoromethyl)pyrimidin-4(3H)-one]
28 nM	2.4 nM	53 nM	Nc1cnn(-c2nc(C(F)(F)F)c(Cc3ccc(Cl)c(C(F)(F)F)c3)c(=O)[nH]2)c1 [Example 107, 2-(4-Amino-1H-pyrazol-1-yl)-5-[4-chloro-3-(trifluoromethyl)benzyl]-6-(trifluoromethyl)pyrimidin-4(3H)-one]
5.1 nM	0.3 nM	8.9 nM	O=c1[nH]c(-c2ncccc2Cl)nc(C(F)(F)F)c1Oc1ccc(Cl)c(C(F)(F)F)c1 [Example 38, 2-(3-chloropyridin-2-yl)-5-[4-chloro-3-(trifluoromethyl)phenoxy]-6-(trifluoromethyl)pyrimidin-4(3H)-one]
26 nM	1.5 nM	111 nM	O=c1[nH]c(-c2n[nH]cc2Cl)nc(C(F)(F)F)c1Cc1ccc(Cl)c(C(F)(F)F)c1 [Example 76, 2-(4-chloro-1H-pyrazol-3-yl)-5-[4-chloro-3-(trifluoromethyl)benzyl]-6-(trifluoromethyl)pyrimidin-4(3H)-one]
30 nM	2 nM	144 nM	O=c1[nH]c(-c2ncccc2F)nc(C(F)(F)F)c1Oc1ccc(Cl)c(Cl)c1 [Example 15, 5-(3,4-dichlorophenoxy)-2-(3-fluoropyridin-2-yl)-6-(trifluoromethyl)pyrimidin-4(3H)-one]
44 nM	1.5 nM	812 nM	COc1ncccc1-c1nc(C(F)(F)F)c(Oc2ccc(Cl)c(Cl)c2)c(=O)[nH]1 [Example 42]
53 nM	4.2 nM	195 nM	O=c1[nH]c(-c2ncon2)nc(C(F)(F)F)c1Oc1ccc(Cl)c(Cl)c1 [compound 79, 5-(3,4-Dichlorophenoxy)-2-(1,2,4-oxadiazol-3-yl)-6-(trifluoromethyl)pyrimidin-4(3H)-one]
25 nM	0.4 nM	135 nM	5-(3,4-dichlorobenzyl-2-(3-methoxypyridin-2-yl)-6-(trifluoromethyl)pyrimidin-4(3H)-one [Example 23]
28 nM	4.3 nM	194 nM	O=c1[nH]c(-c2ncccc2Cl)nc(C(F)(F)F)c1Oc1ccc(Cl)c(F)c1 [Example 11, 5-(4-chloro-3-fluorophenoxy)-2-(3-chloropyridin-2-yl)-6-(trifluoromethyl)pyrimidin-4(3H)-one]
25 nM	11 nM	260 nM	O=c1[nH]c(-c2ncccc2Cl)nc(C(F)(F)F)c1Oc1ccc(F)c(Cl)c1 [Example 14, 5-(3-chloro-4-fluorophenoxy)-2-(3-chloropyridin-2-yl)-6-(trifluoromethyl)pyrimidin-4(3H)-one]
2.9 nM	1.1 nM	59 nM	O=c1[nH]c(-c2n[nH]cc2Cl)nc(C(F)(F)F)c1Oc1ccc(Cl)c(Cl)c1 [Example 74, 2-(4-chloro-1H-pyrazol-3-yl)-5-(3,4-dichlorophenoxy)-6-(trifluoromethyl)pyrimidin-4(3H)-one]
